Experimental data: ChEMBL document CHEMBL4765470 (J Med Chem, 2021)

What was measured:
[1] = tested on: Rattus norvegicus; assay: Cardiorenal effect in Sprague-Dawley rat assessed as increase left ventricular fractional shortening at 9.9 nmol/kg/hr dosed by continuous infusion via osmotic mini pumps measured after 24 hrs by echocardiography relative to base line in sham treated control; assay type: functional
[2] = target: T1, Apelin receptor (Homo sapiens, UniProt P35414); assay: Agonist activity at human APJ receptor expressed in HEK293T cells co-expressing PDZ-Rho-Gef-RLucll assessed as induction of Galpha12 effector (PDZ-RhoGEF) to the cell membrane incubated for 5 mins by BRET assay; assay type: functional, cell-based
T1 sequence (P35414 whole entry): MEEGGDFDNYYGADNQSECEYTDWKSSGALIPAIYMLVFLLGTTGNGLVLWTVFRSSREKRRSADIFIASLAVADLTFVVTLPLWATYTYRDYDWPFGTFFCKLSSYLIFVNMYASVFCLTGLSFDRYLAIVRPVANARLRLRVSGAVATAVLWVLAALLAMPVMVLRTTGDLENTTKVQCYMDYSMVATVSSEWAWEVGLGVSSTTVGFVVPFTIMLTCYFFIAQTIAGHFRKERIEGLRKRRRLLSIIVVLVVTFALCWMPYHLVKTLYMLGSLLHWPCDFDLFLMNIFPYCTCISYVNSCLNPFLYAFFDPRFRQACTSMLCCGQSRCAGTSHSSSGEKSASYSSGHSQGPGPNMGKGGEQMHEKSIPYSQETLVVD

[3] = target: T1, Apelin receptor; assay: Displacement of [125I] [NIe75, Tyr77]Pyr-apelin-13 from YFP-tagged human APJ receptor expressed in HEK293 cell membranes incubated for 1 hr by gamma counting based Cheng-Prusoff equation analysis
[4] = tested on: Rattus norvegicus; assay: Cardiorenal effect in Sprague-Dawley rat assessed as urinary output level at 9.9 nmol/kg/hr dosed by continuous infusion via osmotic mini pumps […] (reference value: 1.3 mL/kg/hr); assay type: functional
[5] = tested on: Rattus norvegicus; assay: Cardiorenal effect in Sprague-Dawley rat assessed as water intake level at 9.9 nmol/kg/hr dosed by continuous infusion via osmotic mini pumps […] (reference value: 3.3 mL/kg/hr); assay type: functional
[6] = target: T1, Apelin receptor; assay: Agonist activity at human APJ receptor expressed in HEK293 cells co-expressing Rlucll-beta-arrestin2 assessed as induction of beta-arrestin2 recruitment to APJ incubated for 30 mins by BRET assay; assay type: cell-based
[7] = tested on: Rattus norvegicus; assay: Cardiorenal effect in Sprague-Dawley rat assessed as increase left ventricular fractional shortening at 9.9 nmol/kg/hr dosed by continuous infusion via osmotic mini pumps measured after 6 hrs by echocardiography relative to base line in sham treated control; assay type: functional
[8] = Cardiorenal effect in Sprague-Dawley rat assessed as reduction in blood pressure at 5 nmol/kg, iv […]; assay type: organism-based; conditions: in vivo
[9] = target: T1, Apelin receptor; assay: Agonist activity at human APJ receptor expressed in HEK293 cells co-expressing Galpha(i1)-RlucII(91) assessed as induction of dissociation of Galpha(i1) from G-beta-gamma subunits incubated for 5 mins by BRET assay; assay type: cell-based
[10] = Cardiorenal effect in Sprague-Dawley rat assessed as reduction in blood pressure at 72 nmol/kg, iv […]; assay type: organism-based; conditions: in vivo

| SMILES | Activity [1] | EC50 [2] | Ki [3] | Activity [4] | Activity [5] | EC50 [6] | Activity [7] | Activity [8] | EC50 [9] | Activity [10] |
| --- | --- | --- | --- | --- | --- | --- | --- | --- | --- | --- |
| CSCC[C@H](NC(=O)[C@@H](NC(=O)[C@H](CC(C)C)NC(=O)[C@H](CC(N)=O)NC(=O)[C@@H](NC(=O)[C@@H]1CCCN1C(=O)[C@H](CCCNC(=N)N)NC(=O)[C@@H]1CCC(=O)N1)C(C)C)[C@@H](C)O)C(=O)N[C@@H](C)C(=O)N[C@@H](CCCNC(=N)N)C(=O)N[C@@H](CCCCN)C(=O)N[C@@H](CC(C)C)C(=O)N[C@@H](CCCNC(=N)N)C(=O)N[C@@H](CCCCN)C(=O)N[C@@H](Cc1cnc[nH]1)C(=O)N[C@@H](CC(N)=O)C(=O)N[C@H]1CSSC[C@@H](C(=O)N[C@@H](CCSC)C(=O)N2CCC[C@H]2C(=O)N[C@@H](CC(C)C)C(=O)N[C@@H](Cc2cnc[nH]2)C(=O)N[C@@H](CO)C(=O)N[C@@H](CCCNC(=N)N)C(=O)N[C@H](C(=O)N2CCC[C@H]2C(=O)N[C@@H](Cc2ccccc2)C(=O)N2CCC[C@H]2C(=O)O)C(C)C)NC(=O)[C@H](CCCNC(=N)N)NC(=O)[C@H](CCCNC(=N)N)NC(=O)[C@H](CCC(N)=O)NC(=O)[C@H](CC(C)C)NC1=O | 27% | 25 nM | 0.19 nM | 3.5 mL/h/kg | 5 mL/h/kg | 45 nM | 18% | <= 40 mmHg | 5.3 nM |  |
| CCCC[C@H](N)C(=O)N1CCC[C@H]1C(=O)N[C@@H](CC(C)C)C(=O)N[C@@H](Cc1cnc[nH]1)C(=O)N[C@@H](CO)C(=O)N[C@@H](CCCNC(=N)N)C(=O)N[C@H](C(=O)N1CCC[C@H]1C(=O)N[C@@H](Cc1ccccc1)C(=O)N1CCC[C@H]1C(=O)O)C(C)C | 19% |  |  | 2.7 mL/h/kg | 4.5 mL/h/kg |  | 11% |  |  | Non-Toxic |
